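Assay format: 96-well plates, 48-hour exposure. Abbreviation: GI50, concentration required for 50% inhibition of growth.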 Active and inactive are the calls of the source. No stated cut-off is given here; in the data, active = GI50 up to about 1.1 µM and inactive = higher.
Legend:
Test in all cases: growth of human tumour cells (NCI), 48 h
NCI-H226 = test system: NCI-H226
UO-31 = test system: UO-31
MCF7 = test system: MCF7
SF-539 = test system: SF-539
NCI-H460 = test system: NCI-H460
Hs-578T = test system: Hs-578T
HOP-92 = test system: HOP-92
HOP-62 = test system: HOP-62
COLO 205 = test system: COLO 205
OVCAR-4 = test system: OVCAR-4
KM12 = test system: KM12
Malme-3M = test system: Malme-3M
786-0 = test system: 786-0
BT-549 = test system: BT-549
MDA-N = test system: MDA-N
NCI-H522 = test system: NCI-H522
ACHN = test system: ACHN
MDA-MB-435 = test system: MDA-MB-435
K562 = test system: K562
RPMI-8226 = test system: RPMI-8226
MDA-MB-231 = test system: MDA-MB-231
MOLT-4 = test system: MOLT-4
SNB-19 = test system: SNB-19
OVCAR-8 = test system: OVCAR-8
UACC-62 = test system: UACC-62
SF-268 = test system: SF-268
NCI-H23 = test system: NCI-H23
M14 = test system: M14
RXF 393 = test system: RXF 393
SK-MEL-2 = test system: SK-MEL-2
SW-620 = test system: SW-620
CAKI-1 = test system: CAKI-1
IGROV-1 = test system: IGROV-1
A498 = test system: A498
HT-29 = test system: HT-29
A549 = test system: A549
EKVX = test system: EKVX
TK-10 = test system: TK-10
SR = test system: SR
OVCAR-3 = test system: OVCAR-3
PC-3 = test system: PC-3
HCT-15 = test system: HCT-15
SN12C = test system: SN12C
SK-MEL-28 = test system: SK-MEL-28
HCT-116 = test system: HCT-116
HL-60 = test system: HL-60
DU-145 = test system: DU-145
SF-295 = test system: SF-295
U-251 = test system: U-251
UACC-257 = test system: UACC-257
T47D = test system: T47D
LOX IMVI = test system: LOX IMVI
NCI/ADR-RES = test system: NCI/ADR-RES
SK-MEL-5 = test system: SK-MEL-5
OVCAR-5 = test system: OVCAR-5
HCC 2998 = test system: HCC 2998
SK-OV-3 = test system: SK-OV-3
CCRF-CEM = test system: CCRF-CEM
SNB-75 = test system: SNB-75

Nc1ccc(Oc2ccc(C34CC5CC(C3)CC(c3ccc(Oc6ccc(N)c(O)c6)cc3)(C5)C4)cc2)cc1O
GI50 (NCI-H226): 3.1 µM (inactive)
GI50 (UO-31): 1.77 µM (inactive)
GI50 (MCF7): 2.49 µM (inactive)
GI50 (SF-539): 2.13 µM (inactive)
GI50 (NCI-H460): 1.75 µM (inactive)
GI50 (Hs-578T): 2.02 µM (inactive)
GI50 (HOP-92): 1.98 µM (inactive)
GI50 (HOP-62): 3.47 µM (inactive)
GI50 (COLO 205): 1.52 µM (inactive)
GI50 (OVCAR-4): 2.24 µM (inactive)
GI50 (KM12): 1.93 µM (inactive)
GI50 (Malme-3M): 1.85 µM (inactive)
GI50 (786-0): 4.36 µM (inactive)
GI50 (BT-549): 0.993 µM (active)
GI50 (MDA-N): 1.95 µM (inactive)
GI50 (NCI-H522): 1.54 µM (inactive)
GI50 (ACHN): 1.72 µM (inactive)
GI50 (MDA-MB-435): 1.89 µM (inactive)
GI50 (K562): 3.3 µM (inactive)
GI50 (RPMI-8226): 2.54 µM (inactive)
GI50 (MDA-MB-231): 1.57 µM (inactive)
GI50 (MOLT-4): 2.48 µM (inactive)
GI50 (SNB-19): 1.52 µM (inactive)
GI50 (OVCAR-8): 1.7 µM (inactive)
GI50 (UACC-62): 2.25 µM (inactive)
GI50 (SF-268): 1.35 µM (inactive)
GI50 (NCI-H23): 1.79 µM (inactive)
GI50 (M14): 1.63 µM (inactive)
GI50 (RXF 393): 1.41 µM (inactive)
GI50 (SK-MEL-2): 2.07 µM (inactive)
GI50 (SW-620): 2.89 µM (inactive)
GI50 (CAKI-1): 1.93 µM (inactive)
GI50 (IGROV-1): 1.5 µM (inactive)
GI50 (A498): 7.66 µM (inactive)
GI50 (HT-29): 2.05 µM (inactive)
GI50 (A549): 1.64 µM (inactive)
GI50 (EKVX): 1.72 µM (inactive)
GI50 (TK-10): 3.3 µM (inactive)
GI50 (SR): 0.424 µM (active)
GI50 (OVCAR-3): 2.03 µM (inactive)
GI50 (PC-3): 1.75 µM (inactive)
GI50 (HCT-15): 1.77 µM
GI50 (SN12C): 2.45 µM (inactive)
GI50 (SK-MEL-28): 2.48 µM (inactive)
GI50 (HCT-116): 1.39 µM (inactive)
GI50 (HL-60): 2.12 µM (inactive)
GI50 (DU-145): 1.71 µM (inactive)
GI50 (SF-295): 2.31 µM (inactive)
GI50 (U-251): 1.36 µM (inactive)
GI50 (UACC-257): 1.97 µM (inactive)
GI50 (T47D): 1.76 µM (inactive)
GI50 (LOX IMVI): 1.69 µM (inactive)
GI50 (NCI/ADR-RES): 2.32 µM (inactive)
GI50 (SK-MEL-5): 1.61 µM (inactive)
GI50 (OVCAR-5): 2.05 µM (inactive)
GI50 (HCC 2998): 1.47 µM (inactive)
GI50 (SK-OV-3): 3.1 µM (inactive)

O=C1c2ccccc2C(=O)N1CCCCCCNOCCCN1C(=O)c2ccccc2C1=O
GI50 (CCRF-CEM): 25.6 µM (inactive)
GI50 (NCI-H226): > 100 µM (inactive)
GI50 (UO-31): 34 µM (inactive)
GI50 (MCF7): 35.3 µM (inactive)
GI50 (NCI-H460): 44.2 µM (inactive)
GI50 (Hs-578T): > 100 µM (inactive)
GI50 (HOP-92): 34 µM (inactive)
GI50 (HOP-62): 45.1 µM (inactive)
GI50 (COLO 205): 38.7 µM (inactive)
GI50 (OVCAR-4): 22.3 µM (inactive)
GI50 (KM12): 27.1 µM (inactive)
GI50 (Malme-3M): 41.3 µM (inactive)
GI50 (786-0): 99.1 µM (inactive)
GI50 (BT-549): 30.3 µM (inactive)
GI50 (MDA-N): 31.6 µM (inactive)
GI50 (NCI-H522): 26.5 µM (inactive)
GI50 (ACHN): 36.7 µM (inactive)
GI50 (MDA-MB-435): 25.2 µM (inactive)
GI50 (K562): 29.7 µM (inactive)
GI50 (RPMI-8226): 14.4 µM (inactive)
GI50 (MDA-MB-231): 57.5 µM (inactive)
GI50 (MOLT-4): 19.3 µM (inactive)
GI50 (SNB-19): 78.3 µM (inactive)
GI50 (OVCAR-8): 38.9 µM (inactive)
GI50 (UACC-62): 19.5 µM (inactive)
GI50 (SF-268): > 100 µM (inactive)
GI50 (NCI-H23): 26.1 µM (inactive)
GI50 (M14): 21.3 µM (inactive)
GI50 (RXF 393): 17.5 µM (inactive)
GI50 (SK-MEL-2): 16.3 µM (inactive)
GI50 (SW-620): > 100 µM (inactive)
GI50 (SNB-75): 25.1 µM (inactive)
GI50 (CAKI-1): 50.4 µM (inactive)
GI50 (IGROV-1): 90.6 µM (inactive)
GI50 (A498): 21.6 µM (inactive)
GI50 (HT-29): 36.6 µM (inactive)
GI50 (A549): 32.4 µM (inactive)
GI50 (EKVX): 25.6 µM (inactive)
GI50 (TK-10): 59 µM (inactive)
GI50 (SR): 33.4 µM (inactive)
GI50 (OVCAR-3): 23.7 µM (inactive)
GI50 (PC-3): 28.3 µM (inactive)
GI50 (HCT-15): 40.2 µM
GI50 (SN12C): > 100 µM (inactive)
GI50 (SK-MEL-28): 55.3 µM (inactive)
GI50 (HCT-116): 48.8 µM (inactive)
GI50 (DU-145): 51.8 µM (inactive)
GI50 (SF-295): 29.4 µM (inactive)
GI50 (U-251): 63 µM (inactive)
GI50 (UACC-257): 31.1 µM (inactive)
GI50 (T47D): 16.8 µM (inactive)
GI50 (LOX IMVI): 36.2 µM (inactive)
GI50 (NCI/ADR-RES): 26.4 µM (inactive)
GI50 (SK-MEL-5): 15.4 µM (inactive)
GI50 (OVCAR-5): > 100 µM (inactive)
GI50 (HCC 2998): > 100 µM (inactive)
GI50 (SK-OV-3): 56.9 µM (inactive)

CC1(C)OCC(C2OC(N3O[C@H](CI)C[C@@H]3c3ccccc3)C3OC(C)(C)OC23)O1 (stereo not given in full)
GI50 (CCRF-CEM): > 100 µM (inactive)
GI50 (UO-31): > 100 µM (inactive)
GI50 (MCF7): > 100 µM (inactive)
GI50 (SF-539): > 100 µM (inactive)
GI50 (NCI-H460): 56.1 µM (inactive)
GI50 (Hs-578T): > 100 µM (inactive)
GI50 (HOP-92): > 100 µM (inactive)
GI50 (HOP-62): > 100 µM (inactive)
GI50 (COLO 205): > 100 µM (inactive)
GI50 (OVCAR-4): > 100 µM (inactive)
GI50 (KM12): > 100 µM (inactive)
GI50 (Malme-3M): > 100 µM (inactive)
GI50 (786-0): > 100 µM (inactive)
GI50 (BT-549): 99.3 µM (inactive)
GI50 (MDA-N): > 100 µM (inactive)
GI50 (NCI-H522): > 100 µM (inactive)
GI50 (ACHN): > 100 µM (inactive)
GI50 (MDA-MB-435): > 100 µM (inactive)
GI50 (K562): > 100 µM (inactive)
GI50 (RPMI-8226): 43 µM (inactive)
GI50 (MDA-MB-231): > 100 µM (inactive)
GI50 (SNB-19): > 100 µM (inactive)
GI50 (UACC-62): > 100 µM (inactive)
GI50 (SF-268): > 100 µM (inactive)
GI50 (NCI-H23): > 100 µM (inactive)
GI50 (M14): 82 µM (inactive)
GI50 (RXF 393): > 100 µM (inactive)
GI50 (SK-MEL-2): > 100 µM (inactive)
GI50 (SW-620): > 100 µM (inactive)
GI50 (SNB-75): > 100 µM (inactive)
GI50 (CAKI-1): > 100 µM (inactive)
GI50 (IGROV-1): > 100 µM (inactive)
GI50 (A498): > 100 µM (inactive)
GI50 (HT-29): 61.9 µM (inactive)
GI50 (A549): > 100 µM (inactive)
GI50 (EKVX): > 100 µM (inactive)
GI50 (TK-10): > 100 µM (inactive)
GI50 (SR): 48.5 µM (inactive)
GI50 (OVCAR-3): > 100 µM (inactive)
GI50 (PC-3): 34 µM (inactive)
GI50 (HCT-15): > 100 µM
GI50 (SN12C): > 100 µM (inactive)
GI50 (SK-MEL-28): > 100 µM (inactive)
GI50 (HCT-116): 61 µM (inactive)
GI50 (HL-60): 66.5 µM (inactive)
GI50 (DU-145): > 100 µM (inactive)
GI50 (SF-295): > 100 µM (inactive)
GI50 (U-251): > 100 µM (inactive)
GI50 (UACC-257): > 100 µM (inactive)
GI50 (T47D): > 100 µM (inactive)
GI50 (LOX IMVI): > 100 µM (inactive)
GI50 (NCI/ADR-RES): > 100 µM (inactive)
GI50 (SK-MEL-5): 48.8 µM (inactive)
GI50 (OVCAR-5): > 100 µM (inactive)
GI50 (HCC 2998): > 100 µM (inactive)
GI50 (SK-OV-3): > 100 µM (inactive)

From ChEMBL document CHEMBL1201862, “PubChem BioAssay data set” (2004)
